ChEMBL document CHEMBL4376803, “Recent Advances in the Exploration of Therapeutic Analogues of Gramicidin S, an Old but Still Potent Antimicrobial Peptide” (J Med Chem, 2019)
In brackets after ≈: the same amount, converted by molar mass. One block for each compound: values may come before it.

Legend:
Escherichia coli [1] = assay: Antibacterial activity against Escherichia coli NBRC 12734 after overnight incubation by microplate dilution method; format: functional
Pseudomonas aeruginosa [2] = assay: Antibacterial activity against Pseudomonas aeruginosa NBRC 3080 after overnight incubation by microplate dilution method; format: functional
[3] = Hemolytic activity in sheep RBC incubated for 30 mins; format: ADME, cell-based, Ovis aries, Erythrocyte; settings: sheep red blood cells
Bacillus subtilis = assay: Antibacterial activity against Bacillus subtilis NBRC 3513 after overnight incubation by microplate dilution method; format: functional
Priestia megaterium = assay: Antibacterial activity against Bacillus megaterium ATCC 19213 after overnight incubation by microplate dilution method; format: functional
Staphylococcus aureus [4] = assay: Antibacterial activity against Staphylococcus aureus NBRC 12732 after overnight incubation by microplate dilution method; format: functional
Staphylococcus aureus [5] = assay: Antibacterial activity against Staphylococcus aureus 209P incubated for 20 hrs by liquid microdilution method; format: functional
Escherichia coli [6] = assay: Antibacterial activity against Escherichia coli K-12 strain W3110 incubated for 20 hrs by liquid microdilution method; format: functional; settings: K-12 substr. W3110, 20 h
Pseudomonas aeruginosa [7] = assay: Antibacterial activity against Pseudomonas aeruginosa ATCC 19582 after 24 hrs by broth dilution method; format: functional; settings: ATCC 19582, 24 h
[8] = Hemolytic activity against RBC (unknown origin) at 100 ul after 4 hrs; format: ADME, cell-based, Erythrocyte; settings: red blood cells (unknown origin)
Enterococcus faecalis [9] = assay: Antibacterial activity against Enterococcus faecalis 1131 after 24 hrs by broth dilution method; format: functional; settings: Enterococcus faecalis, 1131, 24 h
Escherichia coli [10] = assay: Antibacterial activity against Escherichia coli ATCC 25922 after 24 hrs by broth dilution method; format: functional; settings: ATCC 25922, 24 h
Staphylococcus aureus [11] = assay: Antibacterial activity against Staphylococcus aureus 7323; format: functional
[12] = Haemolytic activity in human erythrocytes incubated for 30 mins; format: ADME, cell-based, Erythrocyte
Staphylococcus aureus [13] = assay: Antibacterial activity against Staphylococcus aureus ATCC 29213 after overnight incubation; format: functional
Escherichia coli [14] = assay: Antibacterial activity against Escherichia coli ATCC 25922 after overnight incubation; format: functional
Enterococcus faecalis [15] = assay: Antibacterial activity against Enterococcus faecalis ATCC 29212 after overnight incubation; format: functional
Enterococcus faecalis [16] = assay: Antibacterial activity against Enterococcus faecalis ATCC 29212 after 24 hrs; format: functional; settings: ATCC 29212, 24 h
Staphylococcus aureus [17] = assay: Antibacterial activity against Staphylococcus aureus ATCC 29213 after 24 hrs; format: functional; settings: ATCC 29213, 24 h
Pseudomonas aeruginosa [18] = assay: Antibacterial activity against Pseudomonas aeruginosa ATCC 27853 incubated for 24 hrs; format: functional; settings: ATCC 27853, 24 h
Escherichia coli [19] = assay: Antibacterial activity against Escherichia coli ATCC 25922 after 24 hrs; format: functional; settings: ATCC 25922, 24 h

- MIC (Pseudomonas aeruginosa [7]): 16 µg/mL (≈ 14.1 µM)
- MIC (Enterococcus faecalis [9]): 16 µg/mL (≈ 14.1 µM)
- MIC (Escherichia coli [10]): 8 µg/mL (≈ 7.07 µM)
- MIC (Staphylococcus aureus [11]): 4 µg/mL (≈ 3.54 µM)
SMILES: CC(C)C[C@@H]1NC(=O)[C@H](CCCN)NC(=O)[C@H](C(C)C)NC(=O)[C@@H]2CCCN2C(=O)[C@@H](Cc2c[nH]cn2)NC(=O)[C@H](CC(C)C)NC(=O)[C@@H](CCCN)NC(=O)[C@H](C(C)C)NC(=O)[C@@H]2CCCN2C(=O)[C@@H](Cc2ccccc2)NC1=O
- HC50 at 4 h [8]: 90 to 110 µg/mL

- MIC (Staphylococcus aureus [13]): 8 µg/mL (≈ 5.91 µM)
- MIC (Escherichia coli [14]): 64 µg/mL (≈ 47.3 µM)
- MIC (Enterococcus faecalis [15]): 8 µg/mL (≈ 5.91 µM)
SMILES: CC(C)C[C@@H]1NC(=O)[C@H](CCCN)NC(=O)[C@H](C(C)C)NC(=O)[C@@H]2CCCN2C(=O)[C@@H](Cc2ccc(OCc3ccccc3)cc2)NC(=O)[C@H](CC(C)C)NC(=O)[C@@H](CCCN)NC(=O)[C@H](C(C)C)NC(=O)[C@@H]2CCCN2C(=O)[C@@H](Cc2ccc(OCc3ccccc3)cc2)NC1=O

- MIC (Escherichia coli [1]): 25 µg/mL (≈ 19.3 µM)
- MIC (Pseudomonas aeruginosa [2]): 100 µg/mL (≈ 77 µM)
- MIC (Bacillus subtilis): 6.25 µg/mL (≈ 4.81 µM)
- MIC (Priestia megaterium): 3.13 µg/mL (≈ 2.41 µM)
- MIC (Staphylococcus aureus [4]): 3.13 µg/mL (≈ 2.41 µM)
SMILES: CC(C)C[C@@H]1NC(=O)[C@H](CCCN)NC(=O)[C@H](C(C)C)NC(=O)[C@@H]2CCCN2C(=O)[C@@H](Cc2ccccc2)NC(=O)[C@H](CC(C)C)NC(=O)[C@H](CCCN)NC(=O)[C@H](C(C)C)NC(=O)[C@@H]2CCCN2C(=O)NC(=O)[C@H](Cc2ccccc2)NC(=O)[C@H](CCCN)NC1=O
- HC50 at 0.5 h [3]: 90 to 100 µg/mL

- MIC (Pseudomonas aeruginosa [7]): > 64 µg/mL
- MIC (Enterococcus faecalis [9]): 64 µg/mL (≈ 56.5 µM)
- MIC (Escherichia coli [10]): 32 µg/mL (≈ 28.3 µM)
- MIC (Staphylococcus aureus [11]): 16 µg/mL (≈ 14.1 µM)
SMILES: CC(C)C[C@@H]1NC(=O)[C@H](CCCN)NC(=O)[C@H](C(C)C)NC(=O)[C@@H]2CCCN2C(=O)[C@@H](Cc2c[nH]nn2)NC(=O)[C@H](CC(C)C)NC(=O)[C@@H](CCCN)NC(=O)[C@H](C(C)C)NC(=O)[C@@H]2CCCN2C(=O)[C@@H](Cc2ccccc2)NC1=O
- HC50 at 4 h [8]: 45 to 55 µg/mL

More lines, now with the values behind:

SMILES: CC(C)C[C@@H]1NC(=O)[C@H](CCCN)NC(=O)[C@H](C(C)C)NC(=O)[C@@H]2CCCN2C(=O)[C@@H](CCCCN)NC(=O)[C@H](CC(C)C)NC(=O)[C@@H](CCCN)NC(=O)[C@H](C(C)C)NC(=O)[C@@H]2CCCN2C(=O)[C@@H](CCCCN)NC1=O
- MIC (Escherichia coli [1]): 12.5 µg/mL (≈ 11.3 µM)
- MIC (Pseudomonas aeruginosa [2]): 12.5 µg/mL (≈ 11.3 µM)
- HC50 at 0.5 h [3]: 150 to 200 µg/mL
- MIC (Bacillus subtilis): 6.25 µg/mL (≈ 5.66 µM)
- MIC (Priestia megaterium): 3.13 µg/mL (≈ 2.84 µM)
- MIC (Staphylococcus aureus [4]): 3.13 µg/mL (≈ 2.84 µM)

SMILES: CC(C)C[C@@H]1NC(=O)[C@H](CCCN)NC(=O)[C@H](C(C)C)NC(=O)[C@@H]2C[C@@H](N[C@@H](Cc3ccccc3)C(=O)O)CN2C(=O)[C@@H](Cc2ccccc2)NC(=O)[C@H](CC(C)C)NC(=O)[C@H](CCCN)NC(=O)[C@H](C(C)C)NC(=O)[C@@H]2C[C@@H](N[C@@H](Cc3ccccc3)C(=O)O)CN2C(=O)[C@@H](Cc2ccccc2)NC1=O [listing 1 of 2 here]
- MIC (Staphylococcus aureus [5]): 8 µg/mL (≈ 5.45 µM)
- MIC (Escherichia coli [6]): 16 µg/mL (≈ 10.9 µM)

SMILES: CC(C)C[C@@H]1NC(=O)[C@H](CCCN)NC(=O)[C@H](C(C)C)NC(=O)[C@@H]2C[C@@H](N[C@@H](Cc3ccccc3)C(=O)O)CN2C(=O)[C@@H](Cc2ccccc2)NC(=O)[C@H](CC(C)C)NC(=O)[C@H](CCCN)NC(=O)[C@H](C(C)C)NC(=O)[C@@H]2C[C@@H](N[C@@H](Cc3ccccc3)C(=O)O)CN2C(=O)[C@@H](Cc2ccccc2)NC1=O [listing 2 of 2 here]
- HC50 at 0.5 h [12]: 20 to 50 µg/mL

SMILES: CC(C)C[C@@H]1NC(=O)[C@H](CCCN)NC(=O)[C@H](C(C)C)NC(=O)[C@@H]2CCCN2C(=O)[C@@H](Cc2ccc(O)cc2)NC(=O)[C@H](CC(C)C)NC(=O)[C@@H](CCCN)NC(=O)[C@H](C(C)C)NC(=O)[C@@H]2CCCN2C(=O)[C@@H](Cc2ccc(O)cc2)NC1=O
- MIC (Staphylococcus aureus [13]): 32 µg/mL (≈ 27.3 µM)
- MIC (Escherichia coli [14]): 64 µg/mL (≈ 54.5 µM)
- MIC (Enterococcus faecalis [15]): 32 µg/mL (≈ 27.3 µM)

SMILES: NCCC[C@@H]1NC(=O)[C@H](C23CC4CC(CC(C4)C2)C3)NC(=O)[C@@H]2CCCN2C(=O)[C@@H](Cc2ccccc2)NC(=O)[C@H](C23CC4CC(CC(C4)C2)C3)NC(=O)[C@H](CCCN)NC(=O)[C@H](C23CC4CC(CC(C4)C2)C3)NC(=O)[C@@H]2CCCN2C(=O)[C@@H](Cc2ccccc2)NC(=O)[C@H](C23CC4CC(CC(C4)C2)C3)NC1=O
- MIC (Enterococcus faecalis [16]): > 64 µg/mL
- MIC (Staphylococcus aureus [17]): > 64 µg/mL
- MIC (Pseudomonas aeruginosa [18]): > 64 µg/mL
- MIC (Escherichia coli [19]): > 64 µg/mL

SMILES: CC(C)C[C@@H]1NC(=O)[C@H](CCCN)NC(=O)[C@H](C(C)C)NC(=O)[C@@H]2C[C@@H](N)CN2C(=O)[C@@H](Cc2ccccc2)NC(=O)[C@H](CC(C)C)NC(=O)[C@H](CCCN)NC(=O)[C@H](C(C)C)NC(=O)[C@@H]2C[C@@H](N)CN2C(=O)[C@@H](Cc2ccccc2)NC1=O
- HC50 at 0.5 h [12]: 50 to 100 µg/mL
